Measurements from a melting point compilation (Tetko et al.; mined from patent text by program, amines drawn as free bases though some values may be those of a salt).

| Compound | melting point [°C] |
| --- | --- |
| CSc1c(CC(=O)O)n(Cc2ccc(Cl)cc2)c2ccc(CF)cc12 | 136 to 140 |
| COC(=O)c1cc(N2CCNC2=O)c2cc(Cc3ccc(F)cc3)cnc2c1O | 248 to 250 |
| OC(=S)CCc1cccc(Br)c1 | 90 to 91 |
| COC(=O)C#CC(=O)c1ccc(SC)cc1 | 74 to 76 |
| CCCCCCCCCCCCCCCCNc1ccc(C(=O)OC2COC(c3ccccc3)OC2)cc1 (configuration not stated) | 115 to 117 |
| COC(=O)[C@@H]1C[C@H](OC(=O)c2cccnc2)C(=O)[C@H]2[C@@]1(C)CC[C@H]1C(=O)O[C@H](c3ccoc3)C[C@]21C | 200 to 204 |
| CCCCCC(=O)C=Cc1ccc(CC(=O)O)s1 | 51 |
| CCN(CC)CCCN1CCN(CCN2CCCCC2)C1=C(C#N)C#N | 58 to 61 |
| CCSc1nn2c(-c3ccc(OC)cc3)nnc2c2ccccc12 | 176 to 178 |
| CCCCNC(=O)NC(=O)C(C)Oc1ccc(Oc2ncc(C(F)(F)F)cc2Cl)cc1 (configuration not stated) | 126 to 127 |
| Cc1cccc(-c2cc(O)c(SCc3ccccc3)c(=O)o2)c1 | 137 to 138 |
| CN1CCN(c2cc(NC(=O)OC(C)(C)C)c([N+](=O)[O-])cc2C#Cc2ccccc2)CC1 | 170 |
| N#Cc1ncc(Cl)cc1OC1SCC(O)C(O)C1O (configuration not stated) | 122 |
| COc1ccc2c(c1)oc(=O)c1c3ccc(OC)cc3sc21 | 220 to 221 |
| Cc1cccc(C(C)C)c1NC(=O)NC1(c2cccs2)CCCCC1 | 230 to 232 |
| CC(=O)NC[C@H]1CN(c2ccc(N3CCC(=C(C#N)C#N)CC3)c(F)c2)C(=O)O1 | 158 to 160 |
| CC(C)(C)c1cc(C(=O)Nc2ccc(C(=O)O)cc2)cc(C(C)(C)C)c1O | 160 to 162 |

Further lines, results first:

| melting point [°C] | Compound |
| --- | --- |
| 167 to 168 | NC(=NCC(F)(F)F)Nc1ccnc(CSCCN2C(=O)c3ccccc3C2=O)n1 |
| 115 to 116 | C=CCO/N=C(\C(=O)OC)c1csc(NC(c2ccccc2)(c2ccccc2)c2ccccc2)n1 |
| 140 | COc1cc(OC)nc(Oc2cccc(Oc3nc(OC)cc(OC)n3)c2C)n1 |
| 98 to 99 | CCOC(=O)c1cc2cc(OCCCOC)cc(N(C)S(=O)(=O)c3ccccn3)c2[nH]1 |
| 189 | O=[N+]([O-])c1ccc(SSn2nccn2)c(C(Cl)(Cl)Cl)c1 |
| 114 to 117 | Nc1ncc2c(n1)CCC(NC(=O)[C@@H]1CCCN1C(=O)[C@@H](CC1CCCCC1)NS(=O)(=O)Cc1ccccc1)C2 (some centres not stated) |
| 188 to 190 | CN1C(=O)C(Cc2ccccc2)(c2ccccc2O)c2ccccc21 (configuration not stated) |
| 111 to 113 | CN(CCN(O)C(N)=O)Cc1cccc(Oc2ccc(Cl)cc2)c1 |
| 147 to 148 | Cc1nc(N2C[C@@H](C)N(Cc3cc(F)cc(F)c3)C2=O)sc1C(=O)NCc1ccccn1 |
| 261 to 263 | Cc1nc(-c2cccc3ccccc23)n2cn[nH]c(=O)c12 |
| 156 to 157 | C=C(C(=O)c1ccc(C(=O)O)cc1)c1cc(OC)c(OC)c(-c2cccs2)c1 |
| 223 to 227 | Cc1ccc2cccc(OCc3cccc(N)c3C)c2n1 |
| 151 to 152 | OCc1cn(-c2ccc(F)c(Br)c2)cn1 |
| 176 to 180 | CCOC(=O)c1cn(-c2nc(N)c(F)cc2F)c2c(F)c(F)c(F)c(NCc3ccccc3)c2c1=O |
| 156 to 158 | CC1(C)Oc2ccc(C#N)cc2[C@@H](NC(=O)C2=C(c3ccccc3)CCC2)[C@@H]1O |
| 247 to 250 | COc1cccc(C(=O)c2sc(NC(=O)c3ccncc3)nc2-c2ccco2)n1 |
| 188 to 190 | O=C1CCC(N2Cc3c(OCc4ccccc4CN4CCOCC4)cccc3C2=O)C(=O)N1 (configuration not stated) |
| 185 to 186 | O=C(O)c1snc(-c2cccc(Cl)c2)c1C(=O)O |
| 240 to 242 | Nc1nc2c(ncn2OCC/C=C\P(=O)(O)O)c(=O)[nH]1 |
| 235 to 237 | COC1=C(C(=O)c2ccc(OC)cc2)C(c2ccc(C(C)(C)C)cc2)N(c2nnc(C)s2)C1=O (configuration not stated) |
